Data from US12338203B2 (TAISHO PHARMACEUTICAL CO., LTD., priority 2019, dated 2025).

Molecular target: T1, human LPAR1 (Homo sapiens, UniProt Q92633)
T1 construct: expressed in transfected cells
Experiment: Test Example 1: antagonism against response of LPA-induced increase in intracellular Ca2+ concentration in RH7777 cells stably expressing human LPAR1
Assay type: cell-based
Details: RH7777 cells stably expressing human LPAR1; Fluo-4 fluorescence, FDSS6000; read-out: IC50 value (concentration producing 50% antagonism against response of LPA-induced increase in intracellular Ca2+ concentration) (converted)
Procedure, shortened: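 Ca2+ flux read at 540 nm emission (480 nm excitation) after LPA addition to human LPAR1-expressing RH7777 cells exposed to compound for 30 min, 37 °C, pH 7.4 HEPES-buffered HBSS. Response relative to no-compound control after basal subtraction; IC50 fitted from concentration–response.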

T1 sequence (Q92633 whole entry): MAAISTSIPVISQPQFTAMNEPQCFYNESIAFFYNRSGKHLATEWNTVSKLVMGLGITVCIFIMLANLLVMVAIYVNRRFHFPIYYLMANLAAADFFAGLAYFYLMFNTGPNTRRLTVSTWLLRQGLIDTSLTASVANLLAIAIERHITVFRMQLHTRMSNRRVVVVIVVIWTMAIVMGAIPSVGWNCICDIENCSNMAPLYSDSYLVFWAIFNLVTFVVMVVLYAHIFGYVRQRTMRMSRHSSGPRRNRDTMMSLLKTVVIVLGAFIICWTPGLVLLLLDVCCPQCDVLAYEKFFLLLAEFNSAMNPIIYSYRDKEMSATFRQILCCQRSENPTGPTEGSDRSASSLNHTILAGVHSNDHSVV

| SMILES | IC50 |
| --- | --- |
| CCOc1cc([C@@H](C)N(CCO[C@@H](C)c2ccccc2)C(=O)N[C@]2(C(=O)O)C[C@H](OC)C2)c(C)c(OCC)c1C(C)=O [Example 5-72] | 3.62 nM |
| CCOc1cc(C(C)N(CCCCc2ccccc2)C(=O)NC2(C(=O)O)CC(F)(F)C2)cc(OCC)c1C(=O)CC (stereo not shown) [Example 1-58] | 4.24 nM |
| COc1cc(C(C)N(CCO[C@@H](C)c2ccccc2)C(=O)NC2(C(=O)O)CCOCC2)c(C)c(OC)c1C1CC1 (stereo partly shown) [Example 5-181] | 3.51 nM |
| CCOc1cc([C@@H](C)N(CCCCc2ccccc2)C(=O)NC2(C(=O)O)CC(OCC)C2)cc(OCC)c1C (stereo partly shown) [Example 1-100] | 3.13 nM |
| CCOc1cc([C@@H](C)N(CCCCc2ccccc2)C(=O)NC2(C(=O)O)CC(N3CCN(C)CC3)C2)cc(OCC)c1C (stereo partly shown) [Example 1-109] | 312 nM |
| CCOc1c(C(C)=O)ccc([C@@H](C)N(CCO[C@H](C)c2ccccc2)C(=O)NC2(C(=O)O)CC2)c1C [Example 4-147] | 11.6 nM |
| CCOc1c(C2CC2)ccc([C@@H](C)N(CCO[C@H](C)c2ccccc2)C(=O)NC2(C(=O)O)CCC2)c1C [Example 4-171] | 3.38 nM |
| CCCc1cc(OCC)cc(C(C)N(CCCCc2ccccc2)C(=O)NC2(C(=O)O)CC(F)(F)C2)c1 (stereo not shown) [Example 5-15] | 6.1 nM |
| CCNc1cc(C(C)N(CCCCc2ccccc2)C(=O)NC2(C(=O)O)CC(F)(F)C2)cc(OCC)c1C(C)=O (stereo not shown) [Example 5-102] | 7.35 nM |
| CCOc1cc([C@@H](C)N(CCO[C@@H](C)c2ccccc2)C(=O)NC2(C(=O)OC)CC2)c(Cl)c(OCC)c1C(C)=O [Example 6-3, Methyl 1-[([(1R)-1-(4-Acetyl-2-Chloro-3,5-Diethoxyphenyl)Ethyl]{2-[(1S)-1-Phenylethoxy]Ethyl}Carbamoyl)Amino]Cyclopropane-1-Carboxylate] | 672 nM |
| CCOc1cc(C(C)N(CCCCc2ccccc2)C(=O)NC2(C(=O)O)CC(F)(F)C2)cc(OCC(F)(F)F)c1C (stereo not shown) [Example 1-63] | 10.9 nM |

Further lines, results first:

| IC50 | SMILES |
| --- | --- |
| 3.09 nM | CCOc1cc([C@@H](C)N(CCCCc2ccccc2)C(=O)NC2(C(=O)O)CC(OCC)C2)cc(OCC)c1C(C)=O (stereo partly shown) [Example 1-95] |
| 5.57 nM | CCOc1cc([C@@H](C)N(CCC2Cc3ccccc3C2)C(=O)NC2(C(=O)O)CC(OC)C2)c(C)c(OCC)c1C(C)=O (stereo partly shown) [Example 4-24] |
| 280 nM | CCOc1cc([C@@H](C)N(CCCCc2ccccc2)C(=O)NCCCC(=O)O)cc(OCC)c1C [Example 1-15] |
| 2.53 nM | CCOc1cc([C@@H](C)N(CCCCc2ccccc2)C(=O)NC2(C(=O)O)CC(OC)C2)cc(OCC)c1C(C)=O (stereo partly drawn) [Example 1-85, 1-({[(1R)-1-(4-Acetyl-3,5-Diethoxyphenyl)Ethyl](4-Phenylbutyl) Carbamoyl}Amino)-3-Methoxycyclobutane-1-Carboxylic Acid] |
| 4.19 nM | CCNc1cc(C(C)N(CCCCc2ccccc2)C(=O)NC2(C(=O)O)CC(F)(F)C2)cc(OCC)c1C#N (stereo not shown) [Example 5-114] |
| 2.59 nM | CCOc1cc([C@@H](C)N(CCO[C@@H](C)c2ccccc2)C(=O)NC2(C(=O)O)CC2)c(Cl)c(OCC)c1C(C)=O [Example 5-31, 1-[([(1R)-1-(4-acetyl-2-chloro-3,5-diethoxyphenyl)ethyl]{2-[(1S)-1-phenylethoxy]ethyl}carbamoyl)amino]cyclopropane-1-carboxylic acid] |
| 0.847 nM | CCOc1cc(C(C)N(CCOCc2ccccc2)C(=O)NC2(C(=O)O)CC(OCC)C2)c(Cl)c(OCC)c1C1CC1 (stereo not shown) [Example 5-213] |
| 8.19 nM | CCOc1cc([C@@H](C)N(CCO[C@@H](C)c2ccccc2)C(=O)NC2(C(=O)O)CCOCC2)cc(OCC)c1C(C)O (single isomer, unassigned) [Example 4-144] |
| 3.4 nM | COc1cc(C(C)N(CCO[C@@H](C)c2ccccc2)C(=O)NC2(C(=O)O)CC(F)(F)C2)cc(OC)c1C1CC1 (stereo partly shown) [Example 5-148] |
| 10.3 nM | CCOc1c(C(C)=O)ccc([C@@H](C)N(CCO[C@@H](C)c2ccccc2)C(=O)NC2(C(=O)O)CC(OC)C2)c1C (stereo partly shown) [Example 4-131] |
| 2.38 nM | CCOc1cc(C(C)N(CCOC(C)c2ccccc2)C(=O)NC2(c3nn[nH]n3)CC(OC)C2)cc(OCC)c1C1CC1 (stereo not shown) [Example 10-15] |
